# What was measured:
# [1] = target: Bifunctional 3'-5' exonuclease/ATP-dependent helicase WRN (Homo sapiens, UniProt Q14191); assay: ADP-Glo Kinase Assay
# Protocol: ATPase activity was measured using the ADP-Glo Kinase Assay following the manufacturers recommended protocol.
# [2] = target: T1, Bifunctional 3'-5' exonuclease/ATP-dependent helicase WRN [480-1251] (UniProt Q14191); assay: Biochemical Activity Assays
# T1 construct: 480-1251
# T1 sequence (Q14191 480-1251): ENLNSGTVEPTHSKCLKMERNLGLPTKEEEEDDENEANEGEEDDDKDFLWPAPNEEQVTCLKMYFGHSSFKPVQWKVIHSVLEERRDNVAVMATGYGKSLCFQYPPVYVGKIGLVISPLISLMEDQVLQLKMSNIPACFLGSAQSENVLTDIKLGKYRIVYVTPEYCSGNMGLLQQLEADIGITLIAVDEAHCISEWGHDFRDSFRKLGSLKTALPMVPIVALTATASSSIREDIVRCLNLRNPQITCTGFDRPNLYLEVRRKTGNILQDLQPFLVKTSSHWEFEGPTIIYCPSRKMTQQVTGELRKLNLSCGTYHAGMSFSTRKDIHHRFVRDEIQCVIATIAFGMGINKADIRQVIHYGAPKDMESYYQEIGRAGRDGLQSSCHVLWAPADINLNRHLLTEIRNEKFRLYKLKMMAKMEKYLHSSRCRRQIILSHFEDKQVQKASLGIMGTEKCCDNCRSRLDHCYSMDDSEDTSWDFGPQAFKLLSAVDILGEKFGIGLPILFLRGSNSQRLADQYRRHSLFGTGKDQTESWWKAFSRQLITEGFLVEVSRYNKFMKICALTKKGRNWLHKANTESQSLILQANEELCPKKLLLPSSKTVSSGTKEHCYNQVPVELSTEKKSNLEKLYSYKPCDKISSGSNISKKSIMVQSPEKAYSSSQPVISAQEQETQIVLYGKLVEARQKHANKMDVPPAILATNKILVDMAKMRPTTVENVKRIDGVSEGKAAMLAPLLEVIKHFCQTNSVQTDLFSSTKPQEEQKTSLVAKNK
# Sequence of Bifunctional 3'-5' exonuclease/ATP-dependent helicase WRN (Q14191 whole entry): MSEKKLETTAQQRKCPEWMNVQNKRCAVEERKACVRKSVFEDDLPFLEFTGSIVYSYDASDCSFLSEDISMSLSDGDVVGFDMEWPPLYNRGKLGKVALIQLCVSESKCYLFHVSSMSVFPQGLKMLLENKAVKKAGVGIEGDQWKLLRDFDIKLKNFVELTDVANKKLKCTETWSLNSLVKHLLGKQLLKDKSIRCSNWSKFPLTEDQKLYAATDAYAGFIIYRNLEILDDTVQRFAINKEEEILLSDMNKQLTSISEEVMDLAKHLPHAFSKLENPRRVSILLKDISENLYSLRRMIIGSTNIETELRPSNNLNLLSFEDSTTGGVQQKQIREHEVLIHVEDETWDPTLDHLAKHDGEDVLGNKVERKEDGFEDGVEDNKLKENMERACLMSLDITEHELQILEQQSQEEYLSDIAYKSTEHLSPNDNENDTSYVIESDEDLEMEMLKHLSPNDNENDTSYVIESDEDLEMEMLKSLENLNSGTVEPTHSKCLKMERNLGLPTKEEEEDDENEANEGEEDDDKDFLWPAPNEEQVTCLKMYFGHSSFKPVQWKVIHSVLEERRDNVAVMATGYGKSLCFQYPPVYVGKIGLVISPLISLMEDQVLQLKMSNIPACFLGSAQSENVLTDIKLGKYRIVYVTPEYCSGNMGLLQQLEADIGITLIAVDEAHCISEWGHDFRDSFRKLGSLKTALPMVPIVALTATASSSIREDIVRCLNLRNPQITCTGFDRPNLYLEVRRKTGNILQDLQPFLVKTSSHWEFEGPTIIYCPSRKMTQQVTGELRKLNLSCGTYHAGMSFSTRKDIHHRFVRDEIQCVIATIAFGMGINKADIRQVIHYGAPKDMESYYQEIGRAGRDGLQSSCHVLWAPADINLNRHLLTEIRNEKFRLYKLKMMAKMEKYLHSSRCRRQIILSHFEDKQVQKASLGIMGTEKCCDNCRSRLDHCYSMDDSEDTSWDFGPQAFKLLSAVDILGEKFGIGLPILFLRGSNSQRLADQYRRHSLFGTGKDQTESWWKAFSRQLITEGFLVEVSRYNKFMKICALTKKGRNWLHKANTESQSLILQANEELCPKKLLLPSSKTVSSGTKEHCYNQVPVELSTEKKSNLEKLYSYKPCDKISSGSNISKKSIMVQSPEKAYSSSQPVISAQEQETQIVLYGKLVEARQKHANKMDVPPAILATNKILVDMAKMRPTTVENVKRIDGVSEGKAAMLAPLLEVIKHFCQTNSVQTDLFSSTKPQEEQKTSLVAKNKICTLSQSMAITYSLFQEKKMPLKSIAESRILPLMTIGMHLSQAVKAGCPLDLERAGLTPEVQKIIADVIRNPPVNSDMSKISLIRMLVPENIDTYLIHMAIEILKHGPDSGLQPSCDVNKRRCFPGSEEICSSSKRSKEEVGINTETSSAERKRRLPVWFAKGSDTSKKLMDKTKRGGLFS
Structure (SMILES),IC50 [1],IC50 [2]
"CCc1c(N2CCN(C(=O)c3ncnc(C)c3O)CC2)c(=O)n2nc(-c3ccn4ncnc4c3)nc2n1CC(=O)Nc1ccc(C(F)(F)F)cc1Cl [WO2025049746, Example 220]",111 nM,96 nM
"CCc1c(N2CCN(C(=O)c3ncnc(C)c3O)CC2)c(=O)n2nc(-c3cc(C)c4c(c3)COC4(C)C)nc2n1CC(=O)Nc1ccc(C(F)(F)F)cc1Cl [WO2025049746, Example 221]",47 nM,56 nM
"CCc1c(N2CCN(C(=O)c3ncnc(C)c3O)CC2)c(=O)n2nc(-c3cccc4c3COC(C)(C)C4)nc2n1CC(=O)Nc1ccc(C(F)(F)F)cc1Cl [WO2025049746, Example 222]",40 nM,45 nM
"CCc1c(N2CCN(C(=O)c3ncnc(C)c3O)CC2)c(=O)n2nc(-c3cccc4c3COC(C)(C)C4)nc2n1CC(=O)Nc1ccc(C(F)(F)F)cc1Cl [WO2025049746, Example 223]",3830 nM,1550 nM
"CCc1c(N2CCN(C(=O)c3ncnc(C)c3O)CC2)c(=O)n2nc(-c3ccc4c(c3)CC(F)(F)C4)nc2n1CC(=O)Nc1ccc(C(F)(F)F)cc1Cl [WO2025049746, Example 224]",47 nM,47 nM
"CCc1c(N2CCN(C(=O)c3ncnc(C)c3O)CC2)c(=O)n2nc(-c3ccc4oc(=O)n(C)c4c3)nc2n1CC(=O)Nc1ccc(C(F)(F)F)cc1Cl [WO2025049746, Example 225]",27 nM,32 nM
"CCc1c(N2CCN(C(=O)c3ncnc(C)c3O)CC2)c(=O)n2nc(-c3ccc4c(c3)CC[C@H]4OC(F)F)nc2n1CC(=O)Nc1ccc(C(F)(F)F)cc1Cl [WO2025049746, Example 226]",74 nM,98 nM
"CCc1c(N2CCN(C(=O)c3ncnc(C)c3O)CC2)c(=O)n2nc(-c3ccc4c(c3)CCC4OC(F)F)nc2n1CC(=O)Nc1ccc(C(F)(F)F)cc1Cl (configuration not stated) [WO2025049746, Example 227]",95 nM,89 nM
"CCc1c(N2CCN(C(=O)c3ncnc(C)c3O)CC2)c(=O)n2nc(-c3ccc4c(c3)CCO[C@@H]4C)nc2n1CC(=O)Nc1ccc(C(F)(F)F)cc1Cl [WO2025049746, Example 228]",32 nM,28 nM
"CCc1c(N2CCN(C(=O)c3ncnc(C)c3O)CC2)c(=O)n2nc(-c3ccc4c(c3)CCO[C@H]4C)nc2n1CC(=O)Nc1ccc(C(F)(F)F)cc1Cl [WO2025049746, Example 229]",27 nM,30 nM
"CCc1c(N2CCN(C(=O)c3ncnc(C)c3O)CC2)c(=O)n2nc(-c3ccc4c(c3)C[C@H](C)O4)nc2n1CC(=O)Nc1ccc(C(F)(F)F)cc1Cl [WO2025049746, Example 230]",39 nM,45 nM
"CCc1c(N2CCN(C(=O)c3ncnc(C)c3O)CC2)c(=O)n2nc(-c3ccc4c(c3)C[C@@H](C)O4)nc2n1CC(=O)Nc1ccc(C(F)(F)F)cc1Cl [WO2025049746, Example 231]",40 nM,49 nM
"CCc1c(N2CCN(C(=O)c3ncnc(C)c3O)CC2)c(=O)n2nc(-c3cccc4c3OC(F)(F)O4)nc2n1CC(=O)Nc1ccc(C(F)(F)F)cc1Cl [WO2025049746, Example 232]",77 nM,67 nM
"CCc1c(N2CCN(C(=O)c3ncnc(C)c3O)CC2)c(=O)n2nc(-c3ccc4c(c3)oc(=O)n4C)nc2n1CC(=O)Nc1ccc(C(F)(F)F)cc1Cl [WO2025049746, Example 233]",21 nM,24 nM
"CCc1c(N2CCN(C(=O)c3ncnc(C)c3O)CC2)c(=O)n2nc(-c3ccc4nonc4c3)nc2n1CC(=O)Nc1ccc(C(F)(F)F)cc1Cl [WO2025049746, Example 234]",67 nM,75 nM
"CCc1c(N2CCN(C(=O)c3ncnc(C)c3O)CC2)c(=O)n2nc(-c3ccc4nn(C)cc4c3)nc2n1CC(=O)Nc1ccc(C(F)(F)F)cc1Cl [WO2025049746, Example 235]",23 nM,26 nM

Structure (SMILES),IC50 [1],IC50 [2]
"CCc1c(N2CCN(C(=O)c3ncnc(C)c3O)CC2)c(=O)n2nc(-c3ccc4ncn(C)c4c3)nc2n1CC(=O)Nc1ccc(C(F)(F)F)cc1Cl [WO2025049746, Example 236]",25 nM,25 nM
"CCc1c(N2CCN(C(=O)c3ncnc(C)c3O)CC2)c(=O)n2nc(-c3ccc4nc(C)oc4c3)nc2n1CC(=O)Nc1ccc(C(F)(F)F)cc1Cl [WO2025049746, Example 237]",82 nM,84 nM
"CCc1c(N2CCN(C(=O)c3ncnc(C)c3O)CC2)c(=O)n2nc(-c3ccc4c(c3C)CCO4)nc2n1CC(=O)Nc1ccc(C(F)(F)F)cc1Cl [WO2025049746, Example 238]",30 nM,33 nM
"CCc1c(N2CCN(C(=O)c3ncnc(C)c3O)CC2)c(=O)n2nc(-c3ccn4nccc4c3C)nc2n1CC(=O)Nc1ccc(C(F)(F)F)cc1Cl [WO2025049746, Example 239]",21 nM,22 nM
"CCc1c(N2CCN(C(=O)c3ncnc(C)c3O)CC2)c(=O)n2nc(-c3cc(C)n4nccc4c3)nc2n1CC(=O)Nc1ccc(C(F)(F)F)cc1Cl [WO2025049746, Example 240]",24 nM,27 nM
"CCc1c(N2CCN(C(=O)c3ncnc(C)c3O)CC2)c(=O)n2nc(-c3ccn4nccc4c3F)nc2n1CC(=O)Nc1ccc(C(F)(F)F)cc1Cl [WO2025049746, Example 241]",18 nM,19 nM
"CCc1c(N2CCN(C(=O)c3ncnc(C)c3O)CC2)c(=O)n2nc(-c3cc4ccnn4cc3F)nc2n1CC(=O)Nc1ccc(C(F)(F)F)cc1Cl [WO2025049746, Example 242]",19 nM,18 nM
"CCc1c(N2CCN(C(=O)c3ncnc(C)c3O)CC2)c(=O)n2nc(-c3cc4ccnn4cc3C)nc2n1CC(=O)Nc1ccc(C(F)(F)F)cc1Cl [WO2025049746, Example 243]",26 nM,34 nM
"CCc1c(N2CCN(C(=O)c3ncnc(C)c3O)CC2)c(=O)n2nc(-c3cc4c(cc3F)[C@@H](OC)CC4)nc2n1CC(=O)Nc1ccc(C(F)(F)F)cc1Cl [WO2025049746, Example 244]",24 nM,23 nM
"CCc1c(N2CCN(C(=O)c3ncnc(C)c3O)CC2)c(=O)n2nc(-c3cc4c(cc3F)[C@H](OC)CC4)nc2n1CC(=O)Nc1ccc(C(F)(F)F)cc1Cl [WO2025049746, Example 245]",26 nM,28 nM
"CCc1c(N2CCN(C(=O)c3ncnc(C)c3O)CC2)c(=O)n2nc(-c3ccn4c(C)nnc4c3)nc2n1CC(=O)Nc1ccc(C(F)(F)F)cc1Cl [WO2025049746, Example 246]",37 nM,42 nM
"CCc1c(N2CCN(C(=O)c3ncnc(C)c3O)CC2)c(=O)n2nc(-c3ccn4nc(C)cc4c3)nc2n1CC(=O)Nc1ccc(C(F)(F)F)cc1Cl [WO2025049746, Example 247]",26 nM,27 nM
"CCc1c(N2CCN(C(=O)c3ncnc(C)c3O)CC2)c(=O)n2nc(-c3ccc4nn(C(F)F)cc4c3)nc2n1CC(=O)Nc1ccc(C(F)(F)F)cc1Cl [WO2025049746, Example 248]",24 nM,26 nM
"CCc1c(N2CCN(C(=O)c3ncnc(C)c3O)CC2)c(=O)n2nc(-c3cc4c(cc3F)O[C@@H](C)C4)nc2n1CC(=O)Nc1ccc(C(F)(F)F)cc1Cl [WO2025049746, Example 249]",25 nM,26 nM
"CCc1c(N2CCN(C(=O)c3ncnc(C)c3O)CC2)c(=O)n2nc(-c3cc4c(cc3F)O[C@H](C)C4)nc2n1CC(=O)Nc1ccc(C(F)(F)F)cc1Cl [WO2025049746, Example 250]",22 nM,20 nM
